Test results: patent publication US20140079836A1, “METHODS AND COMPOSITIONS FOR ALTERING HEALTH, WELLBEING, AND LIFESPAN” (LifeSpan Extension, LLC, priority 2008, published 2014)

Test system: Drosophila Melanogaster
Test: Drosophila survival/longevity after antioxidant media
Type: in vivo
Procedure: Drosophila cultures: A wingless variant of Drosophila Melanogaster was purchased from Carolina Biological Supply. These flies were fed nutrient media (Formula 4-24) and experimental flies were collected within 18 hours after hatching to ensure the females were virgin. Culture media: Flies were given a combination of the following: 1) Formula 4-24 without blue coloring for breeding and post exposure to antioxidants. […] 4) 20% sucrose solution on filter paper following AOX incubation to serve as a low nutrient media and known lifespan shortening agent. […] The flies remain in the antioxidant media for 12 days. […] All the flies are examined daily and media changed as required until all the flies have died. The date (post 12 day antioxidant incubation) is recorded. Lifespan results: The cumulative average lifespan of all flies for each group are then computed and compared against the cumulative average of the control (untreated) flies to determine if the Antioxidants increase lifespan. The average lifespan increase is separated by sex as well as combined for both sexes. This lifespan extension is expressed as a percent increase or decrease over control values. Culture media: […] Experimental phase: […] Lifespan results: The cumulative average lifespan of all flies for each group are then computed and compared against the cumulative average of the control (untreated) flies to determine if the antioxidants increase lifespan. The average lifespan increase is separated by sex as well as combined for both sexes.

[1] = 0.01% antioxidant in media from hatching, antioxidant alone
[2] = 0.1% antioxidant in media from hatching, antioxidant alone
[3] = 1% antioxidant in media from hatching, antioxidant alone
[4] = 1% antioxidant media 12 days, then 20% Sucrose
[5] = 1% antioxidant media 12 days, then 20% Sucrose, vs 20% Sucrose
[6] = 1% antioxidant media 12 days, then H2O2 media
[7] = 1% antioxidant media 12 days, then H2O2 media, vs H2O2

COC1=C(OC)C(=O)C(CCCCCCCCCCO)=C(C)C1=O [Idebenone, 6-(10-hydroxydecyl)-2,3-dimethoxy-5-methyl-1,4-benzoquin-one]
average lifespan, Average of Both [1]: 23.4 days | average lifespan, FEMALE [1]: 23.4 days | average lifespan, Average of Both [2]: 10.2 days | average lifespan, FEMALE [2]: 10.2 days | average lifespan, Average of Both [3]: 10 days | average lifespan, FEMALE [3]: 12.4 days | average lifespan, MALE [3]: 8.1 days | average lifespan, Average of Both [4]: 11.89 days | average lifespan, FEMALE [4]: 11.7 days | average lifespan, MALE [4]: 12.11 days | % Change of lifespan over control, Average of Both [5]: +5% | % Change of lifespan over control, FEMALE [5]: −4% | % Change of lifespan over control, MALE [5]: +24% | average lifespan, Average of Both [6]: 5.75 days | average lifespan, FEMALE [6]: 5.50 days | average lifespan, MALE [6]: 5.32 days | % Change of lifespan over control, Average of Both [7]: +8% | % Change of lifespan over control, FEMALE [7]: −7% | % Change of lifespan over control, MALE [7]: +8%
